In publication PMC12299890 (Pharmaceuticals, 2025):
Read-outs that look alike come from different tables or passages of the source.

Assay: Serum concentration and pharmacokinetics of SCI after oral gavage in Wistar rats
Assay type: in vivo, Wistar rat
Conditions: for AUC(0-t) / Cmax / Tmax / k el / MRT / half-life: male, Wistar, rat, po, 10 mg/kg; for k el: read-out: K (elimination rate constant) (converted); for MRT: read-out: MRT (mean residence time); for half-life: read-out: T0.5e (elimination half-life) (converted)
Description: All procedures were performed according to the Local Ethical Committee of Experiments on Animals guidelines in Olsztyn, Poland. The experiment was conducted in the same way as described by Antonowski et al.. Briefly, the experiment was performed on male Wistar rats (n = 6). Rats were maintained in ventilated rooms under a standard day photoperiod (12:12 h light–dark) as well as with lights on from 700 to 1900 h at 21 °C. All rats had free access to food and water. At 42 days of age, rats were randomized into experimental groups (Table 1 and Table 4).
Before the administration of cyclitol (10 mg/kg), the rats were fasting for 12 h (Table 1). […] Access to water was unlimited during the experiments. The study group (n = 6) was divided into two subgroups (n = 3 rats per subgroup). This practice allows for the use of only 6 rats for the entire experiment in accordance with the 3 Rs principle. Rats received the compound at a dose of 10 mg/kg body weight. Rats were weighed before starting the compound administration. Cyclitol was administered to the rats from the study group using a stainless-steel gastric tube with a ball tip (manufacturer—Agnthos, curved gastric tube, 16G, 3 mm tip, 75 mm). Cyclitol was dissolved in distilled water to a maximum volume of 1 mL. The prepared solution was administered to the animal.
Blood samples were collected into Eppendorf tubes and were centrifuged at 2500× g for 10 min at 8 °C the following day. Blood was harvested from the tail at a specific time. […] Serum was stored at −80 °C for subsequent analyses.
The analysis is described in detail by Antonowski and co-workers. Briefly, the first step was to remove the protein, then concentrate the sample in a speed vacuum evaporator to dryness. Next, samples were analyzed using the high-resolution gas chromatography method. We used a gas chromatograph GC2010Plus (Shimadzu, Tokyo, Japan) with a capillary column ZEBRON ZB-1 (15 m length, 0.25 mm diameter, and 0.1 μm film thickness, Phenomenex, Torrance, CA, USA). Helium was used as a carrier gas (at a flow rate of 1.18 mL min^−1). […] Finally, scyllo-inositol was quantified by using a standard.
The PK parameters were calculated using PK Solver. PKSolver is an add-in program for pharmacokinetic and pharmacodynamic data analysis […]. […] The area under the drug concentration–time curve from time zero to the time of the last quantifiable concentration (AUClast) was calculated using the trapezoidal rule. The volume over which the drug was distributed (Vd) and clearance (CL) were conducted by PK Solver. […] Nevertheless, we estimated K by log-linear regression analysis on data points on the terminal log-linear phase. Noncompartmental analysis is generally the preferred methodology to use in that it requires fewer assumptions than model-based approaches. We presented the results for individual rats, subgroups of rats, and for all subjects studied. The content of scyllo-inositol was calculated from the standard curves of appropriate components. To determine the terminal phase, […] was sufficient.
An analysis of all parameters was carried out with GraphPad Prism software (Version 10 Graph Pad Software Inc., La Jolla, CA, USA). Data are expressed as means ± SEM or individual data. Briefly, AUClast was calculated using the trapezoidal method. The T0.5 of oral administration was calculated as 0.693/K.

[1] = serum, Mean of rats 1–3 ± SEM, oral 10 mg/kg
[2] = serum, Mean of rats 1–3 ± SEM, serum, oral 10 mg/kg
[3] = serum, Mean of rats 4–6 ± SEM, oral 10 mg/kg
[4] = serum, Mean of rats 4–6 ± SEM, serum, oral 10 mg/kg
[5] = serum, Rat No 1, serum, oral 10 mg/kg
[6] = serum, Rat No 2, serum, oral 10 mg/kg
[7] = serum, Rat No 3, serum, oral 10 mg/kg
[8] = serum, Rat No 4, serum, oral 10 mg/kg
[9] = serum, Rat No 5, serum, oral 10 mg/kg
[10] = serum, Rat No 6, serum, oral 10 mg/kg
[11] = serum, mean serum profile of six rats, oral 3.92 mg SCI (10 mg/kg)
[12] = mean serum profile of six rats, oral 3.92 mg SCI (10 mg/kg)

O[C@H]1[C@H](O)[C@@H](O)[C@H](O)[C@@H](O)[C@@H]1O [SCI, scyllo-inositol]
AUC(0-t) [1]: 36400 ± 3390 ng·h/mL | Cmax [1]: 6730 ± 291 ng/mL | Tmax [1]: 1.33 ± 0.167 h | k el [2]: 0.000237 s⁻¹ | MRT [2]: 36.2 ± 20.7 h | half-life [2]: 25.1 ± 14.3 h | AUC(0-t) [3]: 19800 ± 4260 ng·h/mL | Cmax [3]: 4900 ± 874 ng/mL | Tmax [3]: 2.67 ± 0.667 h | k el [4]: 0.000126 s⁻¹ | MRT [4]: 3.6 ± 1.48 h | half-life [4]: 2.5 ± 1.02 h | AUC(0-t) (serum, Rat No 1, oral 10 mg/kg): 40800 ng·h/mL | Cmax (serum, Rat No 1, oral 10 mg/kg): 7200 ng/mL | Tmax (serum, Rat No 1, oral 10 mg/kg): 1.5 h | k el [5]: 0.0007 s⁻¹ | MRT [5]: 0.397 h | half-life [5]: 0.275 h | AUC(0-t) (serum, Rat No 2, oral 10 mg/kg): 38600 ng·h/mL | Cmax (serum, Rat No 2, oral 10 mg/kg): 6200 ng/mL | Tmax (serum, Rat No 2, oral 10 mg/kg): 1.5 h | k el [6]: 3.85e-06 s⁻¹ | MRT [6]: 72.1 h | half-life [6]: 50 h | AUC(0-t) (serum, Rat No 3, oral 10 mg/kg): 29700 ng·h/mL | Cmax (serum, Rat No 3, oral 10 mg/kg): 6800 ng/mL | Tmax (serum, Rat No 3, oral 10 mg/kg): 1 h | k el [7]: 7.67e-06 s⁻¹ | MRT [7]: 36.3 h | half-life [7]: 25.1 h | AUC(0-t) (serum, Rat No 4, oral 10 mg/kg): 11400 ng·h/mL | Cmax (serum, Rat No 4, oral 10 mg/kg): 3200 ng/mL | Tmax (serum, Rat No 4, oral 10 mg/kg): 2 h | k el [8]: 0.000253 s⁻¹ | MRT [8]: 1.1 h | half-life [8]: 0.761 h | AUC(0-t) (serum, Rat No 5, oral 10 mg/kg): 25300 ng·h/mL | Cmax (serum, Rat No 5, oral 10 mg/kg): 6100 ng/mL | Tmax (serum, Rat No 5, oral 10 mg/kg): 4 h | k el [9]: 4.47e-05 s⁻¹ | MRT [9]: 6.21 h | half-life [9]: 4.31 h | AUC(0-t) (serum, Rat No 6, oral 10 mg/kg): 22600 ng·h/mL | Cmax (serum, Rat No 6, oral 10 mg/kg): 5400 ng/mL | Tmax (serum, Rat No 6, oral 10 mg/kg): 2 h | k el [10]: 7.95e-05 s⁻¹ | MRT [10]: 3.5 h | half-life [10]: 2.42 h | AUC(0-t) [11]: 23500 ng·h/mL | Cmax [11]: 5930 ng/mL | Tmax [11]: ~1.5 h | k el [11]: 1.91e-05 s⁻¹ | MRT [11]: 14.5 h | half-life [11]: 10.1 h | CL [12]: 0.167 L/h | Vd [12]: 2.43 L | Side effects of SCI supplementation noticed during the study (oral 10 mg/kg, up to 48 h): no side effects | Time of highest average serum concentration (rats no. 1–3 (sampled 0–1.5, 12, 24 h), oral 10 mg/kg): 1.5 h | Time of highest average serum concentration (rats no. 4–6 (sampled 2–48 h), oral 10 mg/kg): 2 h | Time of first measurement of SCI concentration greater than 0 mg/L (serum, after oral 10 mg/kg): 30 min
